{
  "source": "patent US20250382588A1",
  "about": "“CHIMERIC AAV AND USES THEREOF” (priority 2023, published 2025)",
  "key": {"[1]": {"experiment": "Rotation behavior after nigral EYFP control AAV and CNO", "assay_type": "in vivo, mice", "conditions": "for rotation behavior (FIG. 6C): AAV8R12-G88P3-EYFP; for rotation behavior (FIG. 6C) / rotation behavior (FIG. 7C): n=5; for rotation behavior (FIG. 7C): AAV8R12-G88P7-EYFP", "experimental": "Mice were anesthetized with sodium pentobarbital (Nembutal; 80 mg/kg, i.p.), and then placed into a stereotaxic device (KOPF). Eye cream was applied on both corneas to avoid dehydration. The skull above the targeted areas was thinned with a dental drill and carefully removed. Injections were conducted with a 10 μL syringe connected to a 33-Gauge needle (Neuros; Hamilton), using a microsyringe pump (Legato 130, KD Scientific). A total volume of 200 nL virus was injected into the SNr at a speed of 20 nL/min. The coordinates for the SNr were 3.4 mm posterior, 1.3 mm lateral, 4.8 mm ventral to the bregma.\nMice that were used in the behavioral experiments were then implanted with guide cannulas (KOPF) unilaterally aiming at the dorsomedial striatum (0.5 mm anterior, 1.5 mm lateral, 3.5 mm ventral to the bregma). The cannulas were fixed to the skull with dental cement. Stainless steel obturators were inserted into the guide cannulas and were replaced every other day to maintain the patency until infusions were made. Mice were allowed to recover from the surgery for at least 3 weeks before further studies.\nMice were individually handled for 10-20 seconds per day for at least 5 days to habituate them to the experimenter. The open field test was conducted in a test apparatus (50 cm×50 cm×50 cm) with an HD digital camera (Sony) positioned above the arena. On day one, mice were habituated to the apparatus for 10 minutes. On day 2, mice were administrated saline (0.1 mL i.p. or 200 nL intracranially [i.c.] through the guide cannulas). On day 3, mice were administrated with Clozapine-N-oxide (CNO, Hello Bio, HB1807; 0.3 mg/kg i.p. or 200 nL at 100 μM i.e.). All behavioral tests were conducted 30 minutes after injection. During the test, mice were allowed to freely explore the apparatus for 10 minutes. The behavioral data were analyzed with ANY-maze software (Stoelting Co.)."}, "c-Fos+ cells in the SNr": {"system": "c-Fos+ cells in the SNr", "experiment": "c-Fos staining in the SNr after CNO", "assay_type": "in vivo, mice", "conditions": "AAV8R12-G88P3-HA-hM3Dq"}, "hM3Dq or rM3Ds": {"system": "hM3Dq or rM3Ds", "experiment": "Locomotion test after nigral DREADD AAV and CNO in macaques", "assay_type": "in vivo", "experimental": "To guide the virus injection in SNr, a guide grid of multiple holes spaced by 1 mm was installed on each subject vertically above the SN. By filling vitamin E in these holes, the accurate coordinates for injection could be obtained from the T1-weighted MRI images (3T Tim Trio scanner, Siemens). Virus injections were performed in nine sites covering the whole SNr, and a total volume of 27 μL virus was unilaterally injected in the right SNr at the speed of 300 nL/min.\nTo intracranially administrate drug and/or perform electrophysiological recording, a recording chamber covering from anterior caudate to posterior GPi was fixed on the skull with 6 titanium screws and dental cement. Each subject was allowed to recover from the surgery for at least 6 weeks prior to further studies.\n(§1) The locomotion tests for monkeys were conducted in a custom-made observation cage (100 cm×100 cm×100 cm). The top and front of the cage were made of toughened glass in order to gain a clear view for behavioral recording. Monkeys were habituated to the observation cage by placing them inside for 30 minutes on three separate days.\n(§2) For monkeys injected with AAV8R12-G88P3-HA-hM3Dq, CNO was intracranially infused into the dorsomedial caudate through the recording chamber. To infuse while the animal was awake, the monkey was trained to sit in a primate chair specially designed with its head fixed to the primate chair by a mask made of thermoplastic materials. Injections were conducted through a 33-Gauge needle connected to a 250 μL syringe via a polyethylene pipe (Hamilton, Neuros). […] The needle was held for 5 minutes for drug diffusion before retraction. […] Videos capturing the subjects' behavior were recorded for at least 90 minutes. Animal behaviors from 30-90 minutes after saline/CNO infusion were further analyzed and quantified.\n(§3) For rotation analysis, only movements that occurred lower than 30 cm on the z-axis were counted. To determine the direction of the rotation, we first computed the center for the rotation data in the x-y plane as (x0, y0) by averaging all data points, and then we computed the angle relative to (x0, y0) for each time point by the following formula:\n(§4) where θi represents the rotating angle at time i, and (xi, yi) represents the x-y coordinate at time i. We then calculated the change of rotating angle as Δθi=θi−θi-1. For right nigral injections, when Δθ<0, the direction of the rotation was anticlockwise and was labeled as a contraversive rotation. When Δθ>0, the direction of the rotation was clockwise and was labeled as an ipsiversive rotation. The raw data were analyzed and plotted through a custom R package. Code is available on Github (github.com/chenyef/PD_ana/blob/main/Behavior_ana.txt)."}, "[2]": {"experiment": "Locomotion test in naive macaques after CNO", "assay_type": "in vivo", "experimental": "as §1, §2, §3, §4"}, "[3]": {"conditions": "intracranial or systemic CNO, n=4"}},
  "data": [
    {"smiles": "C[N+]1([O-])CCN(C2=Nc3cc(Cl)ccc3Nc3ccccc32)CC1", "note": "[CNO, clozapine N-oxide]", "values": [
      {"measurement": "rotation behavior (FIG. 6C)", "setting": "[1]; CNO i.p.", "value": "44.72±10.89"},
      {"measurement": "rotation behavior (FIG. 6C)", "setting": "[1]; CNO intracranial", "value": "61.39±5.774"},
      {"measurement": "rotation behavior (FIG. 7C)", "setting": "[1]; CNO i.p.", "value": "46.88±7.497"},
      {"measurement": "rotation behavior (FIG. 7C)", "setting": "[1]; CNO intracranial", "value": "34.55±7.536"},
      {"measurement": "rotational behaviors, in words", "setting": "[1]; animals that received the EYFP control vector named at the place", "value": "didn't induce rotational behaviors"},
      {"measurement": "c-Fos+ cells in the right SNr", "setting": "c-Fos+ cells in the SNr; CNO intraperitoneal", "value": "significant increase"},
      {"measurement": "number of nigral c-Fos+ cells", "setting": "c-Fos+ cells in the SNr; intracranial CNO infusions", "value": "No significant changes"},
      {"measurement": "muscle tone of the contralateral biceps brachii (electromyogram)", "setting": "hM3Dq or rM3Ds; following CNO infusions", "value": "an increase in the muscle tone"},
      {"measurement": "immobile time (FIG. 10E)", "setting": "hM3Dq or rM3Ds; [3]", "value": "89.13±8.379"},
      {"measurement": "speed during contraversive rotations (FIG. 10G)", "setting": "hM3Dq or rM3Ds; [3]", "value": "46.98±6.669"},
      {"measurement": "total distance (FIG. 10F)", "setting": "hM3Dq or rM3Ds; [3]", "value": "97.37±19.41"},
      {"measurement": "velocity of ipsiversive rotations (FIG. 10H)", "setting": "hM3Dq or rM3Ds; [3]", "value": "41.37±6.566"},
      {"measurement": "immobile time (FIG. 11E)", "setting": "[2]; naive macaques, n=3", "value": "149.8±22.65"},
      {"measurement": "percentage of contraversive and ipsiversive rotation (FIG. 11C)", "setting": "[2]; naive macaques, n=3", "value": "0.8384±0.4152"},
      {"measurement": "speed of contraversive rotations (FIG. 11G)", "setting": "[2]; naive macaques, n=3", "value": "39.63±7.092"},
      {"measurement": "speed of ipsiversive rotations (FIG. 11H)", "setting": "[2]; naive macaques, n=3", "value": "42.79±4.705"},
      {"measurement": "time spending in the higher portion of the observing cages (FIG. 11D)", "setting": "[2]; naive macaques, n=3", "value": "60.43±4.542"},
      {"measurement": "total distance (FIG. 11F)", "setting": "[2]; naive macaques, n=3", "value": "59.48±18.65"},
      {"measurement": "behavioral changes in naïve monkeys, in words", "setting": "[2]; no viral injections", "value": "did not induce significant behavioral changes"}
    ]}
  ]
}
